Source: EP4682141A1, “TRICYCLIC COMPOUND” (ONO Pharmaceutical Co., Ltd., priority 2023, dated 2024)
One block for each molecule: values may come before it.

What was measured:
EP1 = molecular target: T1, EP1 (Homo sapiens, UniProt P34995); assay: agonist activity on human EP1 receptor (intracellular calcium concentration, EP1-CHO cells); assay type: cell-based
T1 construct: expressed in transfected cells; host or cells: CHO (EP1-CHO)
T1 sequence (P34995 1-402): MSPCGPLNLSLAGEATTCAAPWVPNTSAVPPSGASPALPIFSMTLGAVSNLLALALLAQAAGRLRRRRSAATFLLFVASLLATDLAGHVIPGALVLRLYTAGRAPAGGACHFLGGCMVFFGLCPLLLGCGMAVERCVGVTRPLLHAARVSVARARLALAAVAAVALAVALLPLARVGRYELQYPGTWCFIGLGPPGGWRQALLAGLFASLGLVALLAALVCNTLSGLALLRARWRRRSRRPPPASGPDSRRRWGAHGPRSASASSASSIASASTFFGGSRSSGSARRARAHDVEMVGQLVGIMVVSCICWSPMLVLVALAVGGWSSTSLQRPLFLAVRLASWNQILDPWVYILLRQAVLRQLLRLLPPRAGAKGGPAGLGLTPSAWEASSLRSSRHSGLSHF
Method: Using CHO cells (EP1-CHO, EP2-CHO, EP3-Chem1, EP4-CHO and IP-CHO) on which various human prostanoid receptors were forcibly expressed, the agonist activity of the test compound on the various prostanoid receptors was examined using the intracellular calcium concentration for EP1 and EP3, and the intracellular cyclic AMP (hereinafter, abbreviated as cAMP) production amount for EP2, EP4 and IP as indices.
The test compound and control substances (PGE2 and iloprost) were dissolved in dimethyl sulfoxide (DMSO) to prepare a 10 mmol/L solution. The prepared 10 mmol/L solution was thawed at the time of use, serially diluted using DMSO, and diluted with a buffer solution 1 for measurement (Hank's balanced salt solution (Thermofischer scientific) containing 1 w/v% human serum albumin (Sigma), 2 µmol/L indomethacin (Sigma), 2.5 mmol/L probenecid, and 10 mmol/L HEPES-NaOH (pH7.4)) or a buffer solution 2 for measurement (D-PBS (Nacalai Tesque) containing 0.1 w/v% human serum albumin, 2 µmol/L diclofenac (Sigma), and 1 mmol/L 3-isobutyl-1-methylxanthine (Sigma)) to perform experiments.
The intracellular calcium concentration was measured using Calcium 6 Assay Kit (Molecular Devices). On the day before the measurement, EP1-CHO and EP3-Chem 1 were obtained by thawing the frozen cells, suspended using Ham's F-12 medium (Thermofischer scientific) containing inactivated (56°C, 30 min) 9.8 vol% FBS (Thermofischer scientific) and penicillin-streptomycin (Nacalai Tesque), seeded into a 96 well UV plate to 1.0×10^5 cells per well, and static cultured at 37°C in the presence of 5%CO2. On the day of the measurement, the medium was removed, followed by addition of 120 µL of the Calcium indication solution dissolved in the buffer solution 1 for measurement and incubation at room temperature under light-shielding for about 1 hour. After 1 hour incubation, the 96 well UV plates were set in a fluorescence spectrophotometer (FDSS-7000, Hamamatsu Photonics) to measure the intracellular calcium concentration. Thirty microliters of the buffer solution 1 for measurement containing various concentrations of agonists were added, and the mixture was reacted. The intracellular calcium concentration was measured by irradiating the cells with 480 nm excitation light and measuring the fluorescence intensity at 540 nm.

[1] = test system: rat renal ischemia reperfusion (IR) model; assay: in vivo drug efficacy in rat renal ischemia reperfusion (IR) model; design: species or system Crl : CD (SD) rats
Method: The effect of the present compound on renal IR damage was evaluated using male rats.
Male Crl : CD (SD) rats aged 3 or 4 weeks were purchased from Charles River Laboratories Japan, and subjected to experiments. Animals were fed ad libitum with FR-2 (Funabashi Farm) at the time of arrival and with solid feed CE-2 (CLEA Japan) for one week before single kidney removal, and watered ad libitum.
After acclimation breeding, the right kidney was removed about 7 days before renal IR treatment. Specifically, the rats were allowed to inhale isoflurane (Mylan) for anesthesia, and administered buprenorphine (Otsuka Pharmaceutical) as an analgesic at 0.01 mg/kg. The right back was incised, the right kidney was removed, and then the incision was sutured.
Renal IR treatment was performed about 7 days after single kidney removal. Specifically, rats were anesthetized by intraperitoneal administration of sodium pentobarbital (Tokyo Chemical Industry) at a dose of 50 mg/kg, and administered buprenorphine as an analgesic at 0.01 mg/kg. The left abdomen was incised, and the renal artery and vein was sandwiched with a clamp (Natsume Seisakusho) to cause ischemia for 35 minutes. During ischemia, the rats were allowed to lie on a heat-retaining plate set at 38°C, and after 35 minutes, the clamp was removed for reperfusion. After visually confirming that blood flow to the kidney was recovered, the incision was sutured. The sham group was a sham-operated group in which neither ischemia nor reperfusion treatment was performed.
Animals were distributed on the day before renal IR treatment such that differences in the mean of the body weight in each group were not biased, and assigned animal numbers.
The compound of Example 7 (test substance) and physiological saline (Otsuka Pharmaceutical) as a vehicle were subcutaneously administered at 5 mL/kg using an injection needle 5 minutes before renal IR treatment. Saline was administered to the sham group in the same test. The administration dose is described in Table 16.
Specifically, the rats were allowed to inhale isoflurane for anesthesia on the day before renal IR treatment, and administered buprenorphine as an analgesic at 0.01 mg/kg. […] The incision was bonded with Dermabond Advanced (Johnson & Johnson). A pump containing a vehicle was also embedded in the sham group in the same test. The administration dose is described in Table 16.
After renal IR treatment, blood was collected through the tail vein on Day1, Day2, and Day3 to obtain serum. In addition, after renal IR treatment, rats were euthanized by exsanguination through the abdominal aorta under isoflurane anesthesia on Day3.
The respective concentrations of serum creatinine (sCre) and blood urea nitrogen (BUN) were measured using an automatic analyzer 7180 (Hitachi High-Tech).

[2] = IR 1.0 µg/kg/min, subcutaneous osmotic pump, day 1
[3] = IR 1.0 µg/kg/min, subcutaneous osmotic pump, day 2
[4] = IR 3.0 µg/kg/min, subcutaneous osmotic pump, day 1
[5] = IR 3.0 µg/kg/min, subcutaneous osmotic pump, day 2
[6] = IR 0.1 mg/kg subcutaneous 5 minutes before renal IR treatment, day 1
[7] = IR 0.1 mg/kg subcutaneous 5 minutes before renal IR treatment, day 2
[8] = IR 0.1 mg/kg subcutaneous 5 minutes before renal IR treatment, day 3
[9] = IR 1.0 mg/kg subcutaneous 5 minutes before renal IR treatment, day 1
[10] = IR 1.0 mg/kg subcutaneous 5 minutes before renal IR treatment, day 2
[11] = IR 1.0 mg/kg subcutaneous 5 minutes before renal IR treatment, day 3

EC50 (EP1): 3.5 µM
SMILES: C[C@@H](c1ccc(F)cc1F)[C@H](O)/C=C/[C@@H]1[C@H]2CCc3ccc(C(=O)O)c(F)c3O[C@H]2C[C@H]1O [Example 1, (1R,2R,3aS,10aR)-1-[(1E,3R,4S)-4-(2,4-difluorophenyl)-3-hydroxy-1-penten-1-yl]-5-fluoro-2-hydroxy-2,3,3a,9,10,10a-hexahydro-1H-benzo[b]cyclopenta[f]oxepine-6-carboxylic acid]

EC50 (EP1): 7.3 µM
SMILES: CC(c1ccccc1F)C(O)/C=C/[C@@H]1[C@H]2CCc3ccc(C(=O)O)c(F)c3O[C@H]2C[C@H]1O (stereo partly drawn) [Example 3, (1R,2R,3aS,10aR)-5-fluoro-1-[(1E)-4-(2-fluorophenyl)-3-hydroxy-1-penten-1-yl]-2-hydroxy-2,3,3a,9,10,10a-hexahydro-1H-benzo[b]cyclopenta[f]oxepine-6-carboxylic acid]

SMILES: Cc1ccccc1C1(C(O)/C=C/[C@@H]2[C@H]3CCc4ccc(C(=O)O)c(F)c4O[C@H]3C[C@H]2O)CC1 (stereo partly drawn) [Example 5-2, (1R,2R,3aS,10aR)-5-fluoro-2-hydroxy-1-{(1E,3ξ)-3-hydroxy-3-[1-(2-methylphenyl)cyclopropyl]-1-propen-1-yl}-2,3,3a,9,10,10a-hexahydro-1H-benzo[b]cyclopenta[f]oxepine-6-carboxylic acid]
blood urea nitrogen (BUN) concentration mean [1, 2]: 75.5
serum creatinine (sCre) concentration mean [1, 2]: 0.91
blood urea nitrogen (BUN) concentration mean [1, 3]: 65.3
serum creatinine (sCre) concentration mean [1, 3]: 0.62
blood urea nitrogen (BUN) concentration mean [1, 4]: 63.4
serum creatinine (sCre) concentration mean [1, 4]: 0.79
blood urea nitrogen (BUN) concentration mean [1, 5]: 54.9
serum creatinine (sCre) concentration mean [1, 5]: 0.50

SMILES: O=C(O)c1ccc2c(c1)O[C@H]1C[C@@H](O)[C@H](/C=C/[C@@H](O)C3(c4ccccc4)CC3)[C@H]1CC2 [Example 7, (1R,2R,3aS,10aR)-2-hydroxy-1-[(1E,3R)-3-hydroxy-3-(1-phenylcyclopropyl)-1-propen-1-yl]-2,3,3a,9,10,10a-hexahydro-1H-benzo[b]cyclopenta[f]oxepine-6-carboxylic acid]
blood urea nitrogen (BUN) concentration mean [1, 6]: 74.6
serum creatinine (sCre) concentration mean [1, 6]: 1.08
blood urea nitrogen (BUN) concentration mean [1, 7]: 58.7
serum creatinine (sCre) concentration mean [1, 7]: 0.72
blood urea nitrogen (BUN) concentration mean [1, 8]: 46.3
serum creatinine (sCre) concentration mean [1, 8]: 0.52
blood urea nitrogen (BUN) concentration mean [1, 9]: 73.6
serum creatinine (sCre) concentration mean [1, 9]: 0.99
blood urea nitrogen (BUN) concentration mean [1, 10]: 53.1
serum creatinine (sCre) concentration mean [1, 10]: 0.62
blood urea nitrogen (BUN) concentration mean [1, 11]: 39.7
serum creatinine (sCre) concentration mean [1, 11]: 0.44

EC50 (EP1): 6.3 µM
SMILES: O=C(O)c1ccc2c(c1)O[C@H]1C[C@@H](O)[C@H](/C=C/C(O)C3(c4ccc(F)cc4)CCC3)[C@H]1CC2 (stereo partly drawn) [Example 7-13, (1R,2R,3aS,10aR)-1-{(1E,3ξ)-3-[1-(4-fluorophenyl)cyclobutyl]-3-hydroxy-1-propen-1-yl}-2-hydroxy-2,3,3a,9,10,10a-hexahydro-1H-benzo[b]cyclopenta[f]oxepine-6-carboxylic acid]

EC50 (EP1): 2.7 µM
SMILES: O=C(O)c1ccc2c(c1Cl)O[C@H]1C[C@@H](O)[C@H](/C=C/C(O)C(F)(F)c3c(F)cccc3F)[C@H]1CC2 (stereo partly drawn) [Example 8, (1R,2R,3aS,10aR)-5-chloro-1-[(1E,3ξ)-4-(2,6-difluorophenyl)-4,4-difluoro-3-hydroxy-1-buten-1-yl]-2-hydroxy-2,3,3a,9,10,10a-hexahydro-1H-benzo[b]cyclopenta[f]oxepine-6-carboxylic acid]

EC50 (EP1): > 10 µM
SMILES: Cc1c(C(=O)O)ccc2c1O[C@H]1C[C@@H](O)[C@H](/C=C/CC(C)(O)CCC(C)C)[C@H]1CC2 (stereo partly drawn) [Example 13, (1R,2R,3aS,10aR)-2-hydroxy-1-[(1E,4ξ)-4-hydroxy-4,7-dimethyl-1-octen-1-yl]-5-methyl-2,3,3a,9,10,10a-hexahydro-1H-benzo[b]cyclopenta[f]oxepine-6-carboxylic acid]

EC50 (EP1): > 10 µM
SMILES: O=C(O)c1ccc2c(c1)O[C@H]1CC[C@H](/C=C/C(O)C3(c4ccccc4F)CCC3)[C@H]1CC2 (stereo partly drawn) [Example 26-9, (1R,3aS,10aR)-1-{(1E,3ξ)-3-[1-(2-fluorophenyl)cyclobutyl]-3-hydroxy-1-propen-1-yl}-2,3,3a,9,10,10a-hexahydro-1H-benzo[b]cyclopenta[f]oxepine-6-carboxylic acid]

EC50 (EP1): > 10 µM
SMILES: O=C(O)c1ccc2c(c1Cl)O[C@H]1CC[C@H](/C=C/C(O)C3(c4ccccc4F)CCC3)[C@H]1CC2 (stereo partly drawn) [Example 26-17, (1R,3aS,10aR)-5-chloro-1-{(1E,3ξ)-3-[1-(2-fluorophenyl)cyclobutyl]-3-hydroxy-1-propen-1-yl}-2,3,3a,9,10,10a-hexahydro-1H-benzo[b]cyclopenta[f]oxepine-6-carboxylic acid]

EC50 (EP1): > 10 µM
SMILES: C=C(CCOC)C(O)/C=C/[C@H]1CC[C@@H]2Oc3c(ccc(C(=O)O)c3Cl)CC[C@@H]21 (stereo partly drawn) [Example 26-19, (1R,3aS,10aR)-5-chloro-1-[(1E,3ξ)-3-hydroxy-6-methoxy-4-methylene-1-hexen-1-yl]-2,3,3a,9,10,10a-hexahydro-1H-benzo[b]cyclopenta[f]oxepine-6-carboxylic acid]

EC50 (EP1): > 10 µM
SMILES: CCCC[C@H](CC)C(O)/C=C/[C@H]1CC[C@@H]2Oc3c(ccc(C(=O)O)c3Cl)CC[C@@H]21 (stereo partly drawn) [Example 26-20, (1R,3aS,10aR)-5-chloro-1-[(1E,3ξ,4S)-4-ethyl-3-hydroxy-1-octen-1-yl]-2,3,3a,9,10,10a-hexahydro-1H-benzo[b]cyclopenta[f]oxepine-6-carboxylic acid]

EC50 (EP1): > 10 µM
SMILES: O=C(O)c1ccc2c(c1Cl)O[C@H]1CC[C@H](/C=C/C(O)C3(c4ccccc4)COC3)[C@H]1CC2 (stereo partly drawn) [Example 26-21, (1R,3aS,10aR)-5-chloro-1-[(1E,3ξ)-3-hydroxy-3-(3-phenyl-3-oxetanyl)-1-propen-1-yl]-2,3,3a,9,10,10a-hexahydro-1H-benzo[b]cyclopenta[f]oxepine-6-carboxylic acid]
